From ChEMBL document CHEMBL1154255 (2009)
Converted amounts (≈) assume the structure as drawn.

Assays:
Type in all cases: functional
BXPC-3 = assay: Growth inhibition of human BxPC3 cells after 48 hrs by sulforhodamine B assay; conditions: BXPC-3, 48 h
NCI-H460 = assay: Growth inhibition of human NCI-H460 cells after 48 hrs by sulforhodamine B assay; conditions: NCI-H460, 48 h
DU-145 = assay: Growth inhibition of human DU145 cells after 48 hrs by sulforhodamine B assay; conditions: DU-145, 48 h
SF-268 = assay: Growth inhibition of human SF268 cells after 48 hrs by sulforhodamine B assay; conditions: SF-268, 48 h
KM-20L2 = assay: Growth inhibition of human KM20L2 cells after 48 hrs by sulforhodamine B assay; conditions: KM-20L2, 48 h
MCF7 = assay: Growth inhibition of human MCF7 cells after 48 hrs by sulforhodamine B assay; conditions: MCF7, 48 h

GI50 (BXPC-3) [µg/mL] | GI50 (NCI-H460) [µg/mL] | GI50 (DU-145) [µg/mL] | GI50 (MCF7) [µg/mL] | Compound | GI50 (SF-268) [µg/mL] | GI50 (KM-20L2) [µg/mL]
> 10 | > 10 | > 10 | > 10 | COc1cc(/C=C/c2ccc(OC)c(OP(=O)([O-])[O-])c2OP(=O)([O-])[O-])cc(OC)c1OP(=O)([O-])[O-].[Na+].[Na+].[Na+].[Na+].[Na+].[Na+] | > 10 | > 10
5 (≈ 16.5 µM) | 4.9 (≈ 16.2 µM) | 6.3 (≈ 20.8 µM) | – | COc1ccc(/C=C/c2cc(OC)c(O)c(OC)c2)cc1O | – | –
0.39 (≈ 1.23 µM) | 0.0006 (≈ 0.0019 µM) | 0.0008 (≈ 0.00253 µM) | – | COc1ccc(/C=C\c2cc(OC)c(OC)c(OC)c2)cc1O [COMBRETASTATIN A4] | > 0.01 | 0.34 (≈ 1.07 µM)

Further lines, the compound ahead of its results:

Compound | GI50 (BXPC-3) [µg/mL] | GI50 (NCI-H460) [µg/mL] | GI50 (DU-145) [µg/mL] | GI50 (MCF7) [µg/mL] | GI50 (SF-268) [µg/mL] | GI50 (KM-20L2) [µg/mL]
COc1ccc(/C=C/c2cc(OC)c(OC)c(OC)c2)cc1O [E-COMBRETASTATIN A-4] | 3.9 (≈ 12.3 µM) | 0.038 (≈ 0.12 µM) | 0.037 (≈ 0.117 µM) | – | – | –
COc1ccc(/C=C\c2cc(OC)cc(OC)c2)cc1 [8Z-3,4',5-TRIMETHOXYSTILBENE] | 0.0034 (≈ 0.0126 µM) | 0.0028 (≈ 0.0104 µM) | 0.0054 (≈ 0.02 µM) | – | 0.0044 (≈ 0.0163 µM) | –
Oc1ccc(/C=C\c2cc(O)cc(O)c2)cc1 [CIS-RESVERATROL] | – | – | – | – | 5 (≈ 21.9 µM) | 22 (≈ 96.4 µM)
COc1cc(/C=C/c2ccc(OC)c(O)c2O)cc(OC)c1O | > 10 | > 10 | > 10 | 5.5 (≈ 17.3 µM) | > 10 | > 10
COc1ccc(/C=C/c2cc(OC)cc(OC)c2)cc1 [TRISMETHOXYRESVERATROL] | 0.35 (≈ 1.29 µM) | 0.62 (≈ 2.29 µM) | 1.5 (≈ 5.55 µM) | – | 0.56 (≈ 2.07 µM) | –
